Assay type in all cases: cell-based
Assay [1] relates to HEK-ISRE-luc cells with conditioned media from PBMC. Description: Interferon production in human PBMC (PBMC HEK-ISRE-luc LEC). As to conditions: Homo sapiens, PBMC; lowest effective concentration; read-out: PBMC HEK-ISRE-luc (LEC). The procedure:
Measurement of Interferon Production in Human PBMC (PBMC HEK-ISRE-Luc LEC)
Activation of human TLR7 results in robust production of interferon by plasmacytoid dendritic cells present in human blood. The potential of compounds to induce interferon was evaluated by determination of interferon in the conditioned media from peripheral blood mononuclear cells (PBMC). The presence of interferon in the samples was determined, using an interferon reporter cell line stably expressing an interferon-stimulated responsive elements (ISRE)-luc reporter construct. The ISRE element with sequence GAAACTGAAACT (SEQ ID NO: 1) is highly responsive to the STAT1-STAT2-IRF9 transcription factor, which becomes activated upon binding of IFN-I to the IFN receptor. Briefly, PBMCs were prepared from buffy coats of at least two donors using a standard Ficoll centrifugation protocol. Isolated PBMCs were resuspended in RPMI medium supplemented with 10% human AB serum and 2×10^5 cells/well were dispensed into 384-well plates containing compounds (70 μL total volume). After overnight incubation of the PBMCs with the compounds, 10 μL of supernatant was transferred to 384-well plates containing 5×10^3 HEK-ISRE-luc cells/well in 30 μL (plated the day before). Following 24 hours of incubation, activation of the ISRE elements was measured by assaying luciferase activity using 40 μL/well Steady Lite Plus substrate (Perkin Elmer) and measured with ViewLux ultraHTS microplate imager (Perkin Elmer). The stimulating activity of each compound on the HEK-ISRE-luc cells was reported as LEC. The LEC in turn indicates the degree of ISRE activation on transfer of a defined amount of PBMC culture medium.
Recombinant interferon alfa-2a (Roferon-A) was used as a standard control compound.

For assay [2], the system named is human TLR7 dIRR2 mutant. Description: Reporter assay for TLR7 activity, HEK293 transfected with mutant TLR7 (dIRR2 deletion) and NFκB-luc. The note with it: lowest effective concentration; 48 h transfection.
Assay [3] deals with Huh-7 luc/neo HCV replicon cells with conditioned media from PBMC. Briefly: Interferon production in human PBMC (PBMC-HUH7_EC50), HCV replicon readout with conditioned media. The note with it: Homo sapiens, Huh-7; concentration applied to PBMCs giving 50% reduction of replicon luciferase activity. The procedure:
Measurement of Interferon Production in Human PBMC (PBMC-HUH7_EC50)
Activation of human TLR7 results in robust production of interferon by plasmacytoid dendritic cells present in human blood. The potential of compounds to induce interferon was evaluated by looking at the antiviral activity in the HCV replicon system upon incubation with conditioned media from peripheral blood mononuclear cells (PBMC). The HCV replicon assay is based on a bicistronic expression construct, as described by Lohmann et al. (Science (1999) 285: 110-113; Journal of Virology (2003) 77: 3007-15 3019) with modifications described by Krieger et al. (Journal of Virology (2001) 75: 4614-4624). The assay utilized the stably transfected cell line Huh-7 luc/neo harboring an RNA encoding a bicistronic expression construct comprising the wild type NS3-NS5B regions of HCV type 1b translated from an Internal Ribosome Entry Site (IRES) from encephalomyocarditis virus (EMCV), preceded by a reporter gene (Firefly-luciferase) and a selectable marker gene (neoR, neomycine phosphotransferase). The construct is flanked by 5′ and 3′ NTRs (non-translated regions) from HCV type 1b. Continued culture of the replicon cells in the presence of G418 (neoR) is dependent on the replication of the HCV RNA. The stably transfected replicon cells that replicate HCV RNA autonomously and to high levels, encoding inter alia luciferase, were used for profiling of the conditioned cell culture media. Briefly, PBMCs were prepared from buffy coats of at least two donors using a standard Ficoll centrifugation protocol. Isolated PBMCs were resuspended in RPMI medium supplemented with 10% human AB serum and 2×10^5 cells/well were dispensed into 384-well plates containing compounds (70 μL total volume). After overnight incubation, […] was transferred to 384-well plates containing 2.2×10^3 replicon cells/well in 30 μL (plated the day before). Following 24 hours of incubation, replication was measured by assaying luciferase activity using 40 μL/well Steady Lite Plus substrate (Perkin Elmer) and measured with ViewLux ultraHTS microplate imager (Perkin Elmer). The inhibitory activity of each compound on the Huh7-luc/neo cells were reported as EC50 values, defined as the compound concentration applied to the PBMCs resulting in a 50% reduction of luciferase activity which in turn indicates the degree of replication of the replicon RNA on transfer of a defined amount of PBMC culture medium. Recombinant interferon α-2a (Roferon-A) was used as a standard control compound.
On the technique in general: Replicon systems follow genome replication, usually without infectious particles.

For assay [4], the system named is human TLR7 dIRR2 mutant. Briefly: Reporter assay for TLR7 activity, HEK293 transfected with mutant TLR7 (dIRR2 deletion) and NFκB-luc. The note with it: lowest effective concentration; 24 h transfection. The protocol: (§1) Reporter Assays for Assessment of TLR7 Activity (24 h)
(§2) The ability of compounds to activate human TLR7 was assessed in a cellular reporter assay using HEK293 cells transiently transfected with a TLR7 or TLR8 expression vector and NFκB-luc reporter construct. In one instance the TLR expression construct expresses the respective wild type sequence or a mutant sequence comprising a deletion in the second leucine-rich repeat (dIRR2) of the TLR.
(§3) Briefly, HEK293 cells were grown in culture medium (DMEM supplemented with 10% FCS and 2 mM Glutamine). For transfection of cells in 10 cm dishes, cells were detached with Trypsin-EDTA, transfected with a mix of CMV-TLR7 or TLR8 plasmid (750 ng), NFκB-luc plasmid (375 ng) and a transfection reagent and incubated 24 hours or 48 hours respectively at 37° C. in a humidified 5% CO2 atmosphere. Transfected cells were then detached with Trypsin-EDTA, washed in PBS and resuspended in medium to a density of 1.67×10^5 cells/mL. Thirty microliters of cells were then dispensed into each well in 384-well plates, where 10 μL of compound in 4% DMSO was already present. Following 6 hours incubation at 37° C., 5% CO2, the luciferase activity was determined by adding 15 μl of Steady Lite Plus substrate (Perkin Elmer) to each well and readout performed on a ViewLux ultraHTS microplate imager (Perkin Elmer). Dose response curves were generated from measurements performed in quadruplicates. Lowest effective concentrations (LEC) values, defined as the concentration that induces an effect which is at least two fold above the standard deviation of the assay, were determined for each compound. Compound toxicity was determined in parallel using a similar dilution series of compound with 30 μL per well of cells transfected with the CMV-TLR7 construct alone (1.67×10^5 cells/mL), in 384-well plates. Cell viability was measured after 6 hours incubation at 37° C., 5% CO2 by adding 15 μL of ATP lite (Perkin Elmer) per well and reading on a ViewLux ultraHTS microplate imager (Perkin Elmer). Data was reported as CC50.
Background: Reporter assays use an easily measured gene product as a stand-in for the process of interest.

Assay [5] concerns the target T1, human TLR7 (Homo sapiens (Human), UniProt Q9NYK1). Description: Reporter assay for TLR7 activity, HEK293 transiently transfected with wild type TLR7 and NFκB-luc. The note with it: lowest effective concentration; 48 h transfection.
Assay [6] concerns the target T1, human TLR7. The assay is described as above. As to conditions: lowest effective concentration; 24 h transfection. The protocol:
as §1, §2, §3

Bounds are passed on as bounds.

T1 sequence (Q9NYK1 27-1049): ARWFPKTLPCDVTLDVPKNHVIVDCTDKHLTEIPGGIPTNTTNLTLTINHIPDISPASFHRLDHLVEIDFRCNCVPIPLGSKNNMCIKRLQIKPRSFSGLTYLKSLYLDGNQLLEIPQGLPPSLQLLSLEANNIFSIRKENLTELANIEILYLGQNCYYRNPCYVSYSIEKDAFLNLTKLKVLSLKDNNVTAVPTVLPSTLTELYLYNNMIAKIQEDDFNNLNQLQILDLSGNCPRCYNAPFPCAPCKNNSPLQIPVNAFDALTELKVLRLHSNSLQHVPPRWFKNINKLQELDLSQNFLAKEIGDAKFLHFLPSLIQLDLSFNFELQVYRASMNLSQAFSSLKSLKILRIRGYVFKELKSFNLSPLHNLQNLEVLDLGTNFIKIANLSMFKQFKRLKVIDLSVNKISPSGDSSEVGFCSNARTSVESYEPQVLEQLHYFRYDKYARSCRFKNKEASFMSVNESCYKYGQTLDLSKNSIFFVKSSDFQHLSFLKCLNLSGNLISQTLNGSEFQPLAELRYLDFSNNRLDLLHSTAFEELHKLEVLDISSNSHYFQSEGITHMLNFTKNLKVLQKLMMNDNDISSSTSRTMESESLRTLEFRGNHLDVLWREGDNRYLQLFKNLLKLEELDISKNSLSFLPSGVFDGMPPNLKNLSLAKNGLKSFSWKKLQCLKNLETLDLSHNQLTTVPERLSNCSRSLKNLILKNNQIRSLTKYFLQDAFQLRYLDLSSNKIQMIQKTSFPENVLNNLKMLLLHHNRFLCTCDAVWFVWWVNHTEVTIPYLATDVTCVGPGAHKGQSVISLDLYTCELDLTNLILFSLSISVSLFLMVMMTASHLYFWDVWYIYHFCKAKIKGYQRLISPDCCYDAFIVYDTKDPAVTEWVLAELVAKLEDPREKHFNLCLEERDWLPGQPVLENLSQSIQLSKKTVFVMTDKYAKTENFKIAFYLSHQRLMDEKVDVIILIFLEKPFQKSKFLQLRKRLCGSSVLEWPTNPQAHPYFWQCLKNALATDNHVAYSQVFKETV

For orientation: EC50 means the concentration that produces a half-maximal response. A low value points to greater potency. On to `Nc1nc(-c2nc(C3CC3)c[nH]2)nc2c1[nH]c(=O)n2Cc1ccccc1` [Compound 1], for which the minimal effective concentration in assay [1] was 0.064 µM. The “TLR7-dIRR2_LEC 48 h” value in the assay on human TLR7 dIRR2 mutant [2] stood at 0.18 µM. In assay [3], the EC50 was determined as 0.081 µM. Besides, the “TLR7-dIRR2_LEC 24 h” value with human TLR7 dIRR2 mutant [4] stood at 0.33 µM. On human TLR7 [5], the “TLR7-wt_LEC 48 h” value stood at 8.25 µM.
In the case of `Nc1nc(-c2nc(-c3ccccc3)c[nH]2)nc2c1[nH]c(=O)n2Cc1ccccc1` [Compound 2], the “TLR7-wt_LEC 24 h” value at human TLR7 [6] was determined as 4.72 µM. Further, in assay [3], a half-maximal effect (EC50) was put at 0.531 µM. Moreover, the “TLR7-dIRR2_LEC 24 h” value in the assay on human TLR7 dIRR2 mutant [4] was determined as 1.2 µM.
`Nc1nc(-c2ncc[nH]2)nc2c1[nH]c(=O)n2Cc1ccccc1` [Compound 4]: the minimal effective concentration in assay [1] worked out at 0.12 µM. Further, the “TLR7-dIRR2_LEC 48 h” value with human TLR7 dIRR2 mutant [2] came to 0.04 µM. The compound also displayed a concentration for a half-maximal effect (EC50) in assay [3] of 0.16 µM. Also, the “TLR7-dIRR2_LEC 24 h” value in the assay on human TLR7 dIRR2 mutant [4] was 0.077 µM. Further, the “TLR7-wt_LEC 48 h” value at human TLR7 [5] stood at 1.23 µM.
The matching figures for `Cc1[nH]c(-c2nc(N)c3[nH]c(=O)n(Cc4ccccc4)c3n2)nc1C1CC1` [Compound 5]: 0.13 µM, 1.13 µM, 0.2 µM, 2.2 µM and 21.47 µM.
For `Nc1nc(-c2nc(C3CC3)c[nH]2)nc2c1[nH]c(=O)n2CC1CCOCC1` [Compound 10] the same measures were 0.44 µM, 10.13 µM, 0.73 µM, 18.93 µM and >25 µM.
Regarding `Nc1nc(-c2ccco2)nc2c1[nH]c(=O)n2Cc1ccccc1` [Compound 20], the “TLR7-dIRR2_LEC 48 h” value in the assay on human TLR7 dIRR2 mutant [2] stood at 0.5 µM. In assay [3], this compound had an EC50 of 0.68 µM. Besides, the “TLR7-dIRR2_LEC 24 h” value in the assay on human TLR7 dIRR2 mutant [4] worked out at 0.5 µM. In addition, the “TLR7-wt_LEC 48 h” value on human TLR7 [5] turned out to be 6.34 µM.
Regarding `Nc1nc(-c2nc(C(F)(F)F)c[nH]2)nc2c1[nH]c(=O)n2Cc1ccccc1` [Compound 31], the minimal effective concentration in assay [1] came to 2.2 µM. Also, the “TLR7-dIRR2_LEC 48 h” value in the assay with human TLR7 dIRR2 mutant [2] was 0.51 µM. In assay [3], the midpoint of the response, the EC50, lay at 1.3 µM. Further, on human TLR7 [5], the “TLR7-wt_LEC 48 h” value worked out at 23.23 µM.
For `Nc1nc(-c2cnco2)nc2c1[nH]c(=O)n2Cc1ccccc1` [Compound 32] the same measures were 0.97 µM, 0.97 µM, 1.51 µM and 6.5 µM.
The matching figures for `Cc1noc(-c2nc(N)c3[nH]c(=O)n(Cc4ccccc4)c3n2)n1` [Compound 33]: 0.52 µM, 0.98 µM, 0.81 µM and 21.66 µM.

The values above are taken from patent US10280167B2, “Purine derivatives for the treatment of viral infections” (JANSSEN SCIENCES IRELAND UC, priority 2011, dated 2019).
